Reference: US10329302B2, “Bicyclic-fused heteroaryl or aryl compounds” (Pfizer Inc., priority 2014, dated 2019)

Each compound was assayed against human IRAK4 FL (Full Length) (Homo sapiens (Human), UniProt Q9NWZ3) (assay: IRAK4 Enzymatic DELFIA Assay, Protocol A). Conditions: not given.
Assay type: biochemical

Sequence of human IRAK4 FL (Full Length) (Q9NWZ3 whole entry): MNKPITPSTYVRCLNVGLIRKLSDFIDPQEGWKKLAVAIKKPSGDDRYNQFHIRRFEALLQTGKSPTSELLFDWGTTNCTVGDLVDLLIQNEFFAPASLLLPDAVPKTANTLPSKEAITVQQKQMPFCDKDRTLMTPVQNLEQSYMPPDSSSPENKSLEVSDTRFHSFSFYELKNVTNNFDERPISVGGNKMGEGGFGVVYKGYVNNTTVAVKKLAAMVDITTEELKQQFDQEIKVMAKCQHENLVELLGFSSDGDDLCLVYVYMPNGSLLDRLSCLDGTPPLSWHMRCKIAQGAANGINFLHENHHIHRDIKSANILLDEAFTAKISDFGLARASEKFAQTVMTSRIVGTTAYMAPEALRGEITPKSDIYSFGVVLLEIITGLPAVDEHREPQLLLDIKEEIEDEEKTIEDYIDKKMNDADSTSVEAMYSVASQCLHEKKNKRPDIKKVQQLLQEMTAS

Row | SMILES | IC50
1 | CC(C)Oc1cc2c(OC[C@@H]3CCC(=O)N3)ncc(-c3cccc(=O)[nH]3)c2cc1C(N)=O [Example 378, 4-(6-oxo-1,6-dihydropyridin-2-yl)-1-{[(2S)-5-oxopyrrolidin-2-yl]methoxy}-7-(propan-2-yloxy)isoquinoline-6-carboxamide] | 59 nM
2 | CC(C)Oc1cc2c(OC[C@@H]3CCC(=O)N3)ncc(CN)c2cc1C(N)=O [Example 195, 4-(aminomethyl)-1-{[(2S)-5-oxopyrrolidin-2-yl]methoxy}-7-(propan-2-yloxy)isoquinoline-6-carboxamide] | 3400 nM

Same assay, conditions: human IRAK4 FL, 0.6 mM ATP (KM); read-out: IRAK4 DELFIA Protocol A IC50

Row | SMILES | IC50
3 | CC(C)Oc1c(C(N)=O)cc2ccnc(OC[C@@H]3CCC(=O)N3)c2c1F [Example 176, 8-fluoro-1-{[(2S)-5-oxopyrrolidin-2-yl]methoxy}-7-(propan-2-yloxy)isoquinoline-6-carboxamide] | 695 nM
4 | CC(C)Oc1cc2c(OC[C@]3(C)CCC(=O)N3)nccc2cc1C(N)=O [Example 126, 1-{[(2S)-2-methyl-5-oxopyrrolidin-2-yl]methoxy}-7-(propan-2-yloxy)isoquinoline-6-carboxamide] | 42 nM
5 | CC(C)Oc1cc2c(O[C@@H]3CCC[C@]34CCC(=O)N4)nccc2cc1C(N)=O [Example 186, 1-{[(5S,6R)-2-oxo-1-azaspiro[4.4]non-6-yl]oxy}-7-(propan-2-yloxy)isoquinoline-6-carboxamide] | 303 nM
6 | CC(C)Oc1cc2c(OC[C@@H]3CN(C)C(=O)N3)nccc2cc1C(N)=O [Example 185, 1-{[(4S)-1-methyl-2-oxoimidazolidin-4-yl]methoxy}-7-(propan-2-yloxy)isoquinoline-6-carboxamide] | 116 nM
7 | CC(C)Oc1cc2c(OC[C@H]3NC(=O)C[C@@H]3C(F)(F)F)nccc2cc1C(N)=O [Example 155, 1-{[(2S,3S)-5-oxo-3-(trifluoromethyl)pyrrolidin-2-yl]methoxy}-7-(propan-2-yloxy)isoquinoline-6-carboxamide] | 267 nM
8 | CC(C)Oc1cc2c(OCC3CN(C(=O)CC#N)C3)nccc2cc1C(N)=O [Example 69, 1-{[1-(cyanoacetyl)azetidin-3-yl]methoxy}-7-(propan-2-yloxy)isoquinoline-6-carboxamide] | 29 nM
9 | Cc1ccnc(-c2cnc(OC[C@@H]3CCC(=O)N3)c3cc(OC(C)C)c(C(N)=O)cc23)n1 [Example 376, 4-(4-methylpyrimidin-2-yl)-1-{[(2S)-5-oxopyrrolidin-2-yl]methoxy}-7-(propan-2-yloxy)isoquinoline-6-carboxamide] | 740 nM
10 | CC(C)Oc1cc2c(OCC3CCS(=O)(=O)N3)nccc2cc1C(N)=O (stereo not shown) [Example 143, 1-[(1,1-dioxido-1,2-thiazolidin-3-yl)methoxy]-7-(propan-2-yloxy)isoquinoline-6-carboxamide] | 2540 nM
11 | COc1cc2c(OC[C@H]3NC(=O)[C@@H]4[C@H](CO)[C@@H]43)nccc2cc1C(N)=O [Example 328, 1-{[(1S,2S,5S)-6-(hydroxymethyl)-4-oxo-3-azabicyclo[3.1.0]hex-2-yl]methoxy}-7-methoxyisoquinoline-6-carboxamide] | 93 nM
12 | CC(C)Oc1cc2c(OC[C@@H]3C[C@@H](C4(O)COC4)C(=O)N3)nccc2cc1C(N)=O [Example 193, 1-{[(2S,4S)-4-(3-hydroxyoxetan-3-yl)-5-oxopyrrolidin-2-yl]methoxy}-7-(propan-2-yloxy)isoquinoline-6-carboxamide] | 238 nM
13 | CC(C)Oc1cc2c(OC[C@H]3NC(=O)[C@@H]4CN(C)C[C@H]34)nccc2cc1C(N)=O [Example 213, 1-{[(1S,3aS,6aR)-5-methyl-3-oxooctahydropyrrolo[3,4-c]pyrrol-1-yl]methoxy}-7-(propan-2-yloxy)isoquinoline-6-carboxamide] | 1420 nM
14 | NC(=O)c1cc2ccnc(OC[C@@H]3CCC(=O)N3)c2cc1OCC1CC1 [Example 204, 7-(cyclopropylmethoxy)-1-{[(2S)-5-oxopyrrolidin-2-yl]methoxy}isoquinoline-6-carboxamide] | 2060 nM
15 | NC(=O)c1cc2ccnc(OC[C@@H]3CCC(=O)N3)c2cc1OC1COC1 [Example 199, 7-(oxetan-3-yloxy)-1-{[(2S)-5-oxopyrrolidin-2-yl]methoxy}isoquinoline-6-carboxamide] | 2900 nM
16 | CC(C)Oc1cc2c(OC[C@@H]3C[C@H](CO)C(=O)N3)nccc2cc1C(N)=O [Example 165, 1-{[(2S,4R)-4-(hydroxymethyl)-5-oxopyrrolidin-2-yl]methoxy}-7-(propan-2-yloxy)isoquinoline-6-carboxamide] | 541 nM
17 | CC(C)Oc1cc2c(OC[C@@H]3CCC(=O)N3)ncc(C#N)c2cc1C(N)=O [Example 190, 4-cyano-1-{[(2S)-5-oxopyrrolidin-2-yl]methoxy}-7-(propan-2-yloxy)isoquinoline-6-carboxamide] | 294 nM
18 | COc1cc2c(OC[C@H]3NC(=O)CC3(C)C)nccc2cc1C(N)=O [Example 221, 1-{[(2S)-3,3-dimethyl-5-oxopyrrolidin-2-yl]methoxy}-7-methoxyisoquinoline-6-carboxamide] | 54 nM
19 | CC(C)Oc1cc2c(OC[C@@H]3C[C@@](F)(C(C)(C)O)C(=O)N3)nccc2cc1C(N)=O [Example 171, 1-{[(2S,4R)-4-fluoro-4-(2-hydroxypropan-2-yl)-5-oxopyrrolidin-2-yl]methoxy}-7-(propan-2-yloxy)isoquinoline-6-carboxamide] | 101 nM
20 | NC(=O)c1cc2ccnc(OC[C@@H]3CCC(=O)N3)c2cc1OC(F)F [Example 129, 7-(difluoromethoxy)-1-{[(2S)-5-oxopyrrolidin-2-yl]methoxy}isoquinoline-6-carboxamide] | 231 nM

Row | SMILES | IC50
21 | COc1cc2c(OC[C@H]3NC(=O)C[C@@H]3CO)nccc2cc1C(N)=O [Example 214, 1-{[(2S,3S)-3-(hydroxymethyl)-5-oxopyrrolidin-2-yl]methoxy}-7-methoxyisoquinoline-6-carboxamide] | 215 nM
22 | Cc1nccc(-c2cnc(OC[C@@H]3CCC(=O)N3)c3cc(OC(C)C)c(C(N)=O)cc23)n1 [Example 379, 4-(2-methylpyrimidin-4-yl)-1-{[(2S)-5-oxopyrrolidin-2-yl]methoxy}-7-(propan-2-yloxy)isoquinoline-6-carboxamide] | 503 nM
23 | CC(C)Oc1cc2c(OC[C@]3(CO)CCC(=O)N3)nccc2cc1C(N)=O [Example 154, 1-{[(2R)-2-(hydroxymethyl)-5-oxopyrrolidin-2-yl]methoxy}-7-(propan-2-yloxy)isoquinoline-6-carboxamide] | 17 nM
24 | COc1cc2c(OC[C@H]3CN(C)C(=O)O3)nccc2cc1C(N)=O [Example 239, 7-methoxy-1-{[(5R)-3-methyl-2-oxo-1,3-oxazolidin-5-yl]methoxy}isoquinoline-6-carboxamide] | 1180 nM
25 | CCOc1cc2c(OC[C@H]3NC(=O)[C@@H]4C[C@H]34)ccnc2cc1C(N)=O [Example 280, 6-ethoxy-4-{[(1S,2S,5R)-4-oxo-3-azabicyclo[3.1.0]hex-2-yl]methoxy}quinoline-7-carboxamide] | 3790 nM
26 | CC(C)Oc1cc2c(OC[C@@H]3C[C@H](C4(O)COC4)C(=O)N3)nccc2cc1C(N)=O [Example 192, 1-{[(2S,4R)-4-(3-hydroxyoxetan-3-yl)-5-oxopyrrolidin-2-yl]methoxy}-7-(propan-2-yloxy)isoquinoline-6-carboxamide] | 284 nM
27 | COc1cc2c(OCC3(C)COCC(=O)N3)nccc2cc1C(N)=O (stereo not shown) [Example 265, 7-methoxy-1-[(3-methyl-5-oxomorpholin-3-yl)methoxy]isoquinoline-6-carboxamide] | 1540 nM
28 | CC(C)Oc1cc2c(OC[C@H]3NC(=O)C[C@@H]3CO)nccc2cc1C(N)=O [Example 212, 1-{[(2S,3S)-3-(hydroxymethyl)-5-oxopyrrolidin-2-yl]methoxy}-7-(propan-2-yloxy)isoquinoline-6-carboxamide] | 150 nM
29 | CC(C)Oc1cc2c(OC[C@@]3(CO)CCC(=O)N3)nccc2cc1C(N)=O [Example 153, 1-{[(2S)-2-(hydroxymethyl)-5-oxopyrrolidin-2-yl]methoxy}-7-(propan-2-yloxy)isoquinoline-6-carboxamide] | 1480 nM
30 | CC(C)Oc1cc2c(OC[C@@H]3CCC(=O)N3)nccc2cc1C(=O)O [Example 169, 1-{[(2S)-5-oxopyrrolidin-2-yl]methoxy}-7-(propan-2-yloxy)isoquinoline-6-carboxylic acid] | 890 nM
31 | COc1cc2c(OC[C@@H]3C[C@H](CC(F)(F)F)C(=O)N3)nccc2cc1C(N)=O [Example 270, 7-methoxy-1-{[(2S,4R)-5-oxo-4-(2,2,2-trifluoroethyl)pyrrolidin-2-yl]methoxy}isoquinoline-6-carboxamide] | 290 nM
32 | CC(C)Oc1cc2c(OC[C@H]3NC(=O)C[C@@H]3N)nccc2cc1C(N)=O [Example 149, 1-{[(2S,3S)-3-amino-5-oxopyrrolidin-2-yl]methoxy}-7-(propan-2-yloxy)isoquinoline-6-carboxamide] | 105 nM
33 | CC(C)Oc1cc2c(OCC3NC(=O)C4CCCCC34)nccc2cc1C(N)=O (stereo not shown) [Example 118, 1-[(3-oxooctahydro-1H-isoindol-1-yl)methoxy]-7-(propan-2-yloxy)isoquinoline-6-carboxamide] | 162 nM
34 | CC(C)Oc1cc2c(OC[C@]34CCC[C@H]3CNC4)nccc2cc1C(N)=O [Example 123, 1-[(3aR,6aR)-hexahydrocyclopenta[c]pyrrol-3a(1H)-ylmethoxy]-7-(propan-2-yloxy)isoquinoline-6-carboxamide] | 747 nM
35 | COc1cc2c(OC[C@H]3NC(=O)[C@H](F)[C@H]3CF)nccc2cc1C(N)=O [Example 375, 1-{[(2S,3R,4R)-4-fluoro-3-(fluoromethyl)-5-oxopyrrolidin-2-yl]methoxy}-7-methoxyisoquinoline-6-carboxamide] | 0.3 nM
36 | COc1cc2c(O[C@@H](C)[C@@H]3CCC(=O)N3)nccc2cc1C(N)=O [Example 354, 7-methoxy-1-{(1S)-1-[(2S)-5-oxopyrrolidin-2-yl]ethoxy}isoquinoline-6-carboxamide] | 2890 nM
37 | CC(C)Oc1cc2c(OC[C@H]3NC(=O)[C@@H]4CNC[C@H]34)nccc2cc1C(N)=O [Example 226, 1-{[(1S,3aS,6aR)-3-oxooctahydropyrrolo[3,4-c]pyrrol-1-yl]methoxy}-7-(propan-2-yloxy)isoquinoline-6-carboxamide] | 222 nM
